Data as given in patent US6579881B2 (Eisai Co., Ltd., priority 1997, dated 2003).
Structures can show the parent of a compound that is named as a salt.

Tests used:
[1] = biological target: T1, serotonin 1A receptor (Rattus norvegicus, UniProt P19327); test: Binding test on [3H] 8-hydroxy-dipropylaminotetralin (serotonin 1A receptor); settings: [3H] 8-OH-DPAT 0.5 nM, receptor fraction of rat hippocampus; read-out: 5HT1a
T1 construct: To the receptor fraction of the hippocampus were added a test compound and 0.5 nM of [^3H]; 8-hydroxy-dipropylaminotetralin; from tissue; host or cells: SD rat hippocampus, membrane (receptor) fraction
T1 sequence (P19327 1-422): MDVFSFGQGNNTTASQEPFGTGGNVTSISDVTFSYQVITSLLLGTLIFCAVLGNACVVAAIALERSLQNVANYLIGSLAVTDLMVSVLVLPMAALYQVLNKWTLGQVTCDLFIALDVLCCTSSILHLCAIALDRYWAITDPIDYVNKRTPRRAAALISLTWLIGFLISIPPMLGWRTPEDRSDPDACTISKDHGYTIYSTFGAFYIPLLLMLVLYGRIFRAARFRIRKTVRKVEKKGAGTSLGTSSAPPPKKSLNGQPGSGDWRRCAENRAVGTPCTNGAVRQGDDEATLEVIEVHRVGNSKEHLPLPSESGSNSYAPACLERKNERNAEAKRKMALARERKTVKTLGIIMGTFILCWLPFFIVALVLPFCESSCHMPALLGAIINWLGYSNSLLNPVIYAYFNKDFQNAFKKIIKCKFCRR

[2] = biological target: serotonin 2 receptor (Rattus norvegicus, UniProt P14842); test: Binding test on [3H] ketanserin (serotonin 2 receptor); settings: [3H] ketanserin 0.3 nM, receptor fraction of rat cerebral cortex; read-out: 5HT2
Chain of serotonin 2 receptor (P14842 whole entry): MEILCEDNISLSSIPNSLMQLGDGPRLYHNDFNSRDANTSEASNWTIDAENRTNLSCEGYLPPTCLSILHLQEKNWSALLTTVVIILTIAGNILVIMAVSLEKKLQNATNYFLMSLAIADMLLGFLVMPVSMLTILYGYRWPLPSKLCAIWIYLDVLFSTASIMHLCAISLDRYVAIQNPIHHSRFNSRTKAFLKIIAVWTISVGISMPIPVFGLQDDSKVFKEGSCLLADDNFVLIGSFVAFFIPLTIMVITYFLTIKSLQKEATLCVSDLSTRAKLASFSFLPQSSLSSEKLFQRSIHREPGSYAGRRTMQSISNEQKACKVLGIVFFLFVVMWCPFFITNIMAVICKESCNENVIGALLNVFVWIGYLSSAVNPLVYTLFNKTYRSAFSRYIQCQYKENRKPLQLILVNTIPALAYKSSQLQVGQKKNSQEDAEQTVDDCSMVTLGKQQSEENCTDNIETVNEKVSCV

| Compound | Ki [1] [nM] | Ki [2] [nM] |
| --- | --- | --- |
| COc1ccc2c(c1)C(N1CCN(CC(=O)c3ccc(F)cc3)CC1)CCC2 (centres unmarked) [Example 281, 1-{4-[2-(4-fluorophenyl)-2-oxoethyl]piperazin-1-yl}-7-methoxy-1,2,3,4-tetrahydronaphthalene Hydrochloride] | 35.2 | 11.2 |
| CCCS(=O)(=O)Nc1ccc2c(c1)N(C1CCN(CCc3ccc(F)cc3)CC1)CC2 [Example 118, 1-[1-(4-fluorophenethyl)piperidin-4-yl]-6-propanesulfonylaminoindoline] | 0.7 | 10.4 |
| Cn1cccc1-c1ccc2ccn(C3CCN(CCc4ccc(F)cc4)CC3)c2c1 [Example 287, 1-[1-(4-fluorophenethyl)piperidin-4-yl]-6-(1-methylpyrrol-2-yl)indole] | 0.1 | > 200 |
| Fc1ccc(CCN2CCC(N3CCc4cc5c(cc43)OCO5)CC2)cc1 [Example 284, 1-[1-(4-fluorophenethyl)piperidin-4-yl]-5,6-methylenedioxyindoline] | 4.5 | 4.7 |
| CCN1CCC(CN2CC(Cc3ccc(OC)cc3)c3ccccc32)CC1 (centres unmarked) [Example 243, 1-[(1-ethylpiperidin-4-yl)methyl]-3-(4-methoxybenzyl)indoline] | > 200 | 53 |
| CC(O)c1ccc(CCN2CCC(N3CCc4ccccc43)CC2)cc1 (centres unmarked) [Example 25, 1-{4-[(1-hydroxyethyl)phenethyl]piperidin-4-yl}indoline] | 8.3 | 13.1 |
| Nc1ccc2c(c1)N(C1CCN(CCc3ccc(F)cc3)CC1)CC2 [Example 110, 1-[1-(4-fluorophenethyl)piperidin-4-yl]-6-aminoindoline] | 23.3 | 16 |
| CNc1ccc2c(c1)N(C1CCN(CCc3ccc(F)cc3)CC1)CC2 [Example 111, 1-[1-(4-fluorophenethyl)piperidin-4-yl]-6-methylaminoindoline] | 5.5 | 74.2 |
| CCN1CCC(N2CCc3ccc(NS(=O)(=O)c4ccc(F)cc4)cc32)CC1 [Example 238, 1-(1-ethylpiperidin-4-yl)-6-(4-fluorobenzenesulfonylamino)indoline] | 86.6 | > 200 |
| Fc1ccc(N2CCC(N3CCc4ccccc43)CC2)cc1 [Example 1, 1-[1-(4-fluorophenyl)piperidin-4-yl]indoline] | 624 | > 200 |
| N#Cc1ncc(CCN2CCC(N3CCc4ccccc43)CC2)s1 [Example 66] | 50.9 | 85 |
| Fc1ccc(CCN2CCC(N3CCc4ccncc43)CC2)cc1 [Example 264, 1-[1-(4-fluorophenethyl)piperidin-4-yl]-6-azaindoline] | 11.3 | 139 |
| OC(c1ccc(Cl)nc1)c1ccc2c(c1)N(C1CCN(CCc3ccc(F)cc3)CC1)CC2 (centres unmarked) [Example 192, 1-[1-(4-fluorophenethyl)piperidin-4-yl]-6-[1-hydroxy-1-(2-chloropyridin-5-yl)methyl]indoline] | 1.02 | 2.9 |
| c1ccc2c(c1)CCN2C1CCN(CCCOc2ccc3c(c2)OCO3)CC1 [Example 78, 1-{1-[3-(3,4-methylenedioxypheoxy)propyl]piperidin-4-yl}indoline] | 2.4 | 29.6 |
| O=C1CCCC(=O)N1Cc1ccc2c(c1)N(C1CCN(CCc3ccc(F)cc3)CC1)CC2 [Example 205, 1-[1-(4-fluorophenethyl)piperidin-4-yl]-6-(glutarimido-1-yl)methylindoline] | 2.76 | 0.12 |
| Fc1ccc(CCN2CCC(N3CCc4ccccc43)CC2)c(F)n1 [Example 57, 1-[1-(2,6-difluoro-3-pyridylethyl)piperidin-4-yl]indoline] | 14.6 | 1.1 |

| Compound | Ki [1] [nM] | Ki [2] [nM] |
| --- | --- | --- |
| Brc1ccc(CCN2CCC(N3CCc4ccccc43)CC2)cc1 [Example 4, 1-[1-(4-bromophenethyl)piperidin-4-yl]indoline] | 6 | 24.9 |
| OC(c1cccnc1)c1ccc2c(c1)N(C1CCN(CCc3ccc(F)cc3)CC1)CC2 (centres unmarked) [Example 176, 1-[1-(4-fluorophenethyl)piperidin-4-yl]-6-[1-hydroxy-1-(3-pyridyl)methyl]indoline] | 1.67 | 0.05 |
| OC(c1cncnc1)c1ccc2c(c1)N(C1CCN(CCc3ccc(F)cc3)CC1)CC2 (centres unmarked) [Example 198, 1-[1-(4-fluorophenethyl)piperidin-4-yl]-6-[1-hydroxy-1-(pyrimidin-5-yl)methyl]indoline] | 13.7 | 2.21 |
| O=Cc1ccc2c(c1)N(C1CCN(CCc3ccc(F)cc3)CC1)CC2 [Example 130, 1-[1-(4-fluorophenethyl)piperidin-4-yl]-6-formylindoline] | 0.49 | 9.12 |
| CCN1CCC(N2CC(CCc3cccc(OC)c3)c3ccccc32)CC1 (centres unmarked) [Example 246, 1-(1-ethylpiperidin-4-yl)-3-(3-methoxyphenethyl)indoline] | > 200 | 60 |
| Fc1ccc(CCN2CCC(N3CCc4ccc(Cc5ccncc5)cc43)CC2)cc1 [Example 179, 1-[1-(4-fluorophenethyl)piperidin-4-yl]-6-(4-pyridylmethyl)indoline] | 0.17 | 0.41 |
| NCc1ccc(CCN2CCC(N3CCc4ccccc43)CC2)cc1 [Example 35, 1-[1-(4-aminomethylphenethyl)piperidin-4-yl]indoline] | 16.6 | 37.6 |
| OC(c1ccc2c(c1)N(C1CCN(CCc3ccc(F)cc3)CC1)CC2)c1nccs1 (centres unmarked) [Example 193, 1-[1-(4-fluorophenethyl)piperidin-4-yl]-6-[1-(2-thiazolyl)-1-hydroxymethyl]indoline] | 6.92 | 2.88 |
| COc1cccc2c1CCN2C1CCN(CCc2ccc(F)cc2)CC1 [Example 105, 1-[1-(4-fluorophenethyl)piperidin-4-yl]-4-methoxyindoline] | > 200 | 17.4 |
| CC(C)C(=O)NCc1ccc2c(c1)N(C1CCN(CCc3ccc(F)cc3)CC1)CC2 [Example 158, 1-[1-(4-fluorophenethyl)piperidin-4-yl]-6-isobutyrylaminomethylindoline] | 8.18 | 0.16 |
| c1csc(CCN2CCC(N3CCc4ccccc43)CC2)c1 [Example 58, 1-{1-[2-(2-thienyl)ethyl]piperidin-4-yl}indoline] | 26.2 | 34.8 |
| OCCOc1ccc2c(c1)CCCC2C1CCN(CCc2ccc(F)cc2)CC1 (centres unmarked) [Example 278, 1-[2-(4-fluorophenyl)ethyl]-4-[6-(2-hydroxy)ethoxy-1,2,3,4-tetrahydronaphthalen-1-yl]piperidine] | > 200 | 3.9 |
| O=C(c1ccc2c(c1)N(C1CCN(CCc3ccc(F)cc3)CC1)CC2)n1cccc1 [Example 126, 1-[1-(4-fluorophenethyl)piperidin-4-yl]-6-(1-pyrrolylcarbonyl)indoline] | 1.23 | 129 |
| O=S(=O)(NCCN1CCC(N2CCc3ccccc32)CC1)c1ccc(Cl)cc1 [Example 47, 1-{1-[2-(4-chlorophenylsulfonylamino)ethyl]piperidin-4-yl}indoline] | 206 | 92.3 |
| CCN1CCC(N2CC(c3ccc(F)cc3)c3ccccc32)CC1 (centres unmarked) [Example 240, 1-(1-ethylpiperidin-4-yl)-3-(4-fluorophenyl)indoline] | > 200 | 27.6 |
